Data on eight compounds can be found in patent US5760241A, “Thiol derivatives with metallopeptidase inhibitory activity” (priority 1996, dated 1998).

The target in test [1] is T1, ACE (purified by lung rabbit, EC 3.4.15.1) (Oryctolagus cuniculus, UniProt P12822).
T1 construct: purchased SIGMA; host or cells: rabbit lung
T1 sequence (P12822 34-1310): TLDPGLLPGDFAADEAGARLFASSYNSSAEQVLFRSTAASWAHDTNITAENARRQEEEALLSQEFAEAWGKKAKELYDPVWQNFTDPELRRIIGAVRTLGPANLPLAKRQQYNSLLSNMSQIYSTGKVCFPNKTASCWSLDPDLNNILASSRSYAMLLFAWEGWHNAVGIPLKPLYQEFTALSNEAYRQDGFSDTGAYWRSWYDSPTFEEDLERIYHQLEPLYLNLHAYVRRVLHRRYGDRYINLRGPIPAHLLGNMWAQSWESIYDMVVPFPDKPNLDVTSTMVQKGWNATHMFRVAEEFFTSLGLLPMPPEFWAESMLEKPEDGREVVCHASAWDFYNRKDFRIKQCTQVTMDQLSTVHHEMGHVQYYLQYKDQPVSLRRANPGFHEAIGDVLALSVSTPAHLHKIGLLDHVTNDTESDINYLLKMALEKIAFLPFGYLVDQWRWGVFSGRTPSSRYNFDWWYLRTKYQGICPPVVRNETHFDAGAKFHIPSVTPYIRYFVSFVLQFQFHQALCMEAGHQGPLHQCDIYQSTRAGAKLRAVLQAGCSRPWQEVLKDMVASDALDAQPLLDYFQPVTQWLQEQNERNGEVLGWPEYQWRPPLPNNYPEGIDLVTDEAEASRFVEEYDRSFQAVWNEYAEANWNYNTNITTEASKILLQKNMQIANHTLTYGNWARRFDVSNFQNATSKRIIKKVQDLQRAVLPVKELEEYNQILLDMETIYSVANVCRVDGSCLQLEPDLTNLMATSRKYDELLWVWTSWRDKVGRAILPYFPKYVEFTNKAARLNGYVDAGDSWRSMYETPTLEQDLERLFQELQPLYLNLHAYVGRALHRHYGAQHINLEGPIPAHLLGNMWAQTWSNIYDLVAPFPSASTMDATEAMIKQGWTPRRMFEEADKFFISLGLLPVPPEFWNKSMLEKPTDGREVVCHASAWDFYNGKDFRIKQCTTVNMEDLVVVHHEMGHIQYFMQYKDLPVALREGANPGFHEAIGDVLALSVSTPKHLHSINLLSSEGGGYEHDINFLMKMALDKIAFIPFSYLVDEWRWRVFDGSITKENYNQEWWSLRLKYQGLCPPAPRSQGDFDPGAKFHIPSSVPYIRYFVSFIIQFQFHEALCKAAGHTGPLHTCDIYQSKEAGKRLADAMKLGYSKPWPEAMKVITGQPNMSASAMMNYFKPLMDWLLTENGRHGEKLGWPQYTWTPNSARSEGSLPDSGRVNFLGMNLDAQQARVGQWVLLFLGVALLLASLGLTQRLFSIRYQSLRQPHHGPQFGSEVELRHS
As to the kind of experiment: In vitro ACE-inhibitory activity (FAPGG substrate, spectrophotometric). The format is biochemical. As to conditions: 37° C.; FAPGG 0.8 mM. The procedure: b) ACE-inhibitory activity
The ACE-inhibitory activity was evaluated according to the method reported in the literature by B. Holmquist et al., in Analytical Biochemistry 95, 540-548 (1979).
[…] of ACE (250 mU/ml purified by lung rabbit, EC 3.4.15.1 SIGMA) were preincubated with 50 μl of the compound of formula I or of the comparison compound in thermostated cuvettes at 37° C.
The reaction was started by adding furylacryloylphenylalanylglycylglycine 0.8 mM (FAPGG-SIGMA).
Contemporaneously, by using a Beckman DU-50 spectrophotometer provided with a program for calculating delta A/minutes and regression coefficients of the enzyme kinetics curves, the absorbance at 340 nm was recorded in continuo for 5 minutes.
The percentage of the enzyme inhibition in the preparations treated with the compounds of formula I or with the comparative compounds with respect to the untreated preparations was expressed as IC50 (nM) value.

Test [2] concerns the target T2, NEP (membranes from rat kidney cortex) (Rattus norvegicus, UniProt P07861).
T2 construct: from tissue; host or cells: kidney cortex membranes of male Sprague-Dawley rats
T2 sequence (P07861 1-750): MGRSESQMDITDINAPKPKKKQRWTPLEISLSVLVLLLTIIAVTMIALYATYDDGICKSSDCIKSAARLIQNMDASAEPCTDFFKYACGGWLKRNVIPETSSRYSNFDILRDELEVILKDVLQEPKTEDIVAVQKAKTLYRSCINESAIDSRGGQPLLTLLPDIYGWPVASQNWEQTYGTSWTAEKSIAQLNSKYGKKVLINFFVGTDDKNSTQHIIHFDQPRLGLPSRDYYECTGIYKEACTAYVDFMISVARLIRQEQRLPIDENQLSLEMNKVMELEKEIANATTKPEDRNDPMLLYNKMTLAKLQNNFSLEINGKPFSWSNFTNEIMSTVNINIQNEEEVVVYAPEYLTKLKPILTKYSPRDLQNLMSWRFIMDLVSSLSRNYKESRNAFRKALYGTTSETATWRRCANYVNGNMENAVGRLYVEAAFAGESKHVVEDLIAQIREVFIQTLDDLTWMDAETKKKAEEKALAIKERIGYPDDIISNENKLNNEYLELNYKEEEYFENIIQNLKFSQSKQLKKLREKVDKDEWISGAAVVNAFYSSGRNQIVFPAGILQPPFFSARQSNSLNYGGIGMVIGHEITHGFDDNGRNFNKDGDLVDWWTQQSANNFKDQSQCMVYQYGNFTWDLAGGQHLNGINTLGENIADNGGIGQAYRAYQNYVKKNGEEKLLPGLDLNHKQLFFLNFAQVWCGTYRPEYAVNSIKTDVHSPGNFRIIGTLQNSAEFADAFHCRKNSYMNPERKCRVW
The test is described as follows: In vitro NEP-inhibitory activity in rat kidney cortex membranes ([3H][Leu5]-enkephaline substrate). The format is biochemical, male Sprague-Dawley rats. The settings on record: for IC50: 20 minutes at 30° C., [3H][Leu5]-enkephaline 15 nM. The procedure:
a) NEP-inhibitory activity
The NEP-inhibitory activity was evaluated in membranes from rat kidney cortex prepared according to the procedure described by T. Maeda et al. in Biochim. Biophys. Acta 1983, 731(1), 115-120.
By working at 0°-4° C., kidneys were removed from male Sprague-Dawley rats weighing approximately 300 g.
Cortex was carefully dissected, finely minced and suspended in a homogenization buffer (10 mM sodium phosphate pH 7.4 containing 1 mM MgCl2, 30 mM NaCl, 0.02% NaN3) 1:15 weight/volume.
The tissue was then homogenized for 30 seconds using an Ultra-Turrax homogenizer.
Approximately 10 ml of homogenate were layered over 10 ml of sucrose (41% weight/volume) and centrifuged at 31200 rpm for 30 minutes at 4° C. in a fixed angle rotor. The membranes were collected from the buffer/sucrose interface, washed twice with 50 mM TRIS/HCl buffer (pH 7.4) and resuspended into the same buffer for storage.
The membranes were stored in small aliquots at -80° C. until use.
The NEP-inhibitory activity was evaluated according to the method described by C. Llorens et al., in Eur. J. Pharmacol., 69, (1981), 113-116, as reported hereinafter.
Aliquots of the membrane suspension prepared as above described (concentration 5 μg/ml of proteins) were preincubated in the presence of an aminopeptidase inhibitory (Bestatin--1 mM) for 10 minutes at 30° C.
[^3 H][Leu^5 ]-enkephaline (15 nM) and buffer TRIS/HCl pH 7.4 (50 mM) were added in order to obtain a final volume of 100 μl.
Incubation (20 minutes at 30° C.) was stopped by adding HCl 0.1M (100 μl).
The formation of the metabolite [^3 H]Tyr-Gly-Gly was quantified by chromatography on polystyrene columns (Porapak Q).

Another test relates to ACE/NEP. The test is described as follows: Ex vivo mixed/dual ACE/NEP-inhibitory activity (lung and kidney of SHR taken together). Type of test: in vivo, spontaneously hypertensive rats (SHR). As to conditions: intravenous or oral. As to the method:
The ex vivo ACE/NEP-inhibitory activity of the compounds of formula I, in particular, was evaluated by considering the enzymatic activity in tissue homogenates (lung and kidney for the ACE- and NEP-inhibitory activity, respectively) from spontaneously hypertensive rats (SHR), treated with the tested compounds by intravenous or oral route.
The inhibitory activity of the compounds of formula I was evaluated in kidneys of spontaneously hypertensive rats (SHR), 5 minutes after i.v. injection (0.6, 0.64 and 21 μmoles/kg) and 30 minutes, 60 minutes and 4 hours after oral administration (30 μmoles/kg) of the tested compounds.
The inhibitory activity of the compounds of formula I was evaluated in lungs of spontaneously hypertensive rats (SHR), 5 minutes after i.v. injection (0.6, 0.64 and 21 μmoles/kg) and 30 minutes, 60 minutes and 4 hours after oral administration (30 μmoles/kg) of the tested compounds.
As an example, the percentages of basal enzymatic activity obtained in the ex vivo tests after the administration of compounds 29 and 41, as representative compounds of formula I, and of the comparison compounds R-1, R-2, R-3 and R-4 are reported in the following table 2.

Counter-ions that a name gives are not always drawn.

`O=C(N[C@@H](Cc1ccc(-c2ccccc2)cc1)C(=O)O)C(CS)Cc1cccnc1` (single isomer, unassigned) [compound 51, N-[2-mercaptomethyl-3-(3-pyridyl)propionyl]-(1,1'-biphenyl-4-yl)-L-alanine hydrochloride]: the IC50 was determined as 2 nM in test [1] and 13 nM in test [2].

In the case of `Cc1cc(CC(CS)C(=O)N[C@@H](Cc2ccc(-c3ccccc3)cc2)C(=O)O)on1` (single isomer, unassigned) [compound 53, N-[2-mercaptomethyl-3-(3-methyl-5-isoxazolyl)propionyl]-(1,1'-biphenyl-4-yl)-L-alanine], in test [1], the midpoint of inhibition, the IC50, lay at 13 nM. Further, the inhibition at 0.1 µM in test [2] (read-out: NEP-inhibitory activity % inhibition (10^-7 M), concentration 10^-7 M) came to 94%.

In turn, `Cc1cc(CC(CS)C(=O)N[C@@H](Cc2ccc(-c3ccccc3)cc2)C(=O)O)on1` (single isomer, unassigned) [compound 54, N-[2-mercaptomethyl-3-(3-methyl-5-isoxazolyl)propionyl]-(1,1'-biphenyl-4-yl)-L-alanine] displayed an IC50 in test [1] of 11 nM. Besides, in test [2] (concentration 10^-7 M), the “NEP-inhibitory activity % inhibition (10^-7 M)” value is 76%.

On to `CC(c1ccccc1)C(CS)C(=O)N[C@@H](C)C(=O)O` (stereo partly drawn) [RB 105, N-[2-(mercaptomethyl)-3-phenylbutanoyl]-L-alanine, reference compound], for which the figures for the IC50 in test [1] and in test [2] were 5 nM and 24 nM, respectively. Moreover, the “ex-vivo mixed/dual ACE/NEP-inhibitory activity, in words” value with ACE/NEP is listed as “not confirmed by ex-vivo tests”.

Regarding `O=C(N[C@@H](Cc1ccc(-c2ccccc2)cc1)C(=O)O)[C@@H](CS)Cc1ccccc1` [compound 46, N-[(2S)-2-mercaptomethyl-3-phenylpropionyl]-(1,1'-biphenyl-4-yl)-L-alanine], the IC50 in test [1] is 2.6 nM; in test [2], 1.8 nM.

`O=C(N[C@@H](Cc1ccc(-c2ccccc2)cc1)C(=O)O)[C@H](CS)Cc1ccccc1` [compound 47, N-[(2R)-2-mercaptomethyl-3-phenylpropionyl]-(1,1'-biphenyl-4-yl)-L-alanine]: the results for the half-inhibitory concentration (IC50) in test [1] and in test [2] were 25.3 nM and 6.1 nM, respectively.

As for `CC(C)C(CS)C(=O)N[C@@H](Cc1ccc(-c2ccccc2)cc1)C(=O)O` (stereo partly drawn) [compound 49, N-(2-isopropyl-3-mercaptopropionyl)-(1,1'-biphenyl-4-yl)-L-alanine], the values for the IC50 in test [1] and in test [2] were 3.8 nM and 1.2 nM, respectively.

In the case of `O=C(N[C@@H](Cc1ccc(-c2ccccc2)cc1)C(=O)O)C(CS)Cc1ccco1` (stereo partly drawn) [compound 52, N-[3-(2-furyl)-2-(mercaptomethyl)propionyl]-(1,1'-biphenyl-4-yl)-L-alanine], the values for the IC50 in test [1] and in test [2] were 6 nM and 3.7 nM, respectively.
